# Data as given in the Deep4Chem optical property database.
# Assay: solvent given as SMILES
compound,measurement,setting,value
O=C1c2ccccc2C(=O)C1C1C(=O)c2c3ccccc3cc3cc4ccccc4c1c23 (stereo unspecified),emission maximum,in C1CCOC1,569 nm
same,emission maximum,in CC#N,591 nm
same,emission maximum,in CCCCCC,538 nm
same,emission maximum,in Cc1ccccc1,563 nm
same,emission maximum,in ClCCl,583 nm
CC1=CC(C)=[N+]2C1=C(c1ccc(N3CCOCC3)cc1)c1c(C)cc(C)n1[B-]2(F)F,emission maximum,in C1CCOC1,514 nm
same,emission maximum,in CC#N,511 nm
same,emission maximum,in CC(=O)C(C)(C)C,520 nm
same,emission maximum,in CC(C)=O,516 nm
same,emission maximum,in CCCCCC,511 nm
same,emission maximum,in CCOC(C)=O,517 nm
same,emission maximum,in CO,514 nm
O=C([O-])c1cc(N2C(=O)C=CC2=O)ccc1-c1c2cc(F)c(=O)cc-2oc2cc([O-])c(F)cc12,emission maximum,in O,520 nm
O=C(O)CCCCCn1c2ccc(Br)cc2c(=O)c2cc(Br)ccc21,emission maximum,in O,439 nm
CCC1=C(C)C2=C(C)c3c(I)c(I)cn3[B-](F)(F)[N+]2=C1C,emission maximum,in C1CCCCC1,538.5 nm
same,emission maximum,in CC(C)=O,533 nm
same,emission maximum,in CCO,534 nm
same,emission maximum,in CCOC(C)=O,533 nm
same,emission maximum,in CO,533.5 nm
same,emission maximum,in OCC(F)(F)F,530.5 nm
Cc1ccc2c(c1)B(c1c(C(C)C)cc(C(C)C)cc1C(C)C)c1cc(C)cc3c1N2c1ccc(C)cc1B3c1c(C(C)C)cc(C(C)C)cc1C(C)C,emission maximum,in ClCCl,482 nm
CC(C)[Si](C#Cc1ccc(C#C[Si](C(C)C)(C(C)C)C(C)C)c2nc3c(nc12)C1c2ccccc2C3c2ccccc21)(C(C)C)C(C)C,emission maximum,in CCCCCC,404 nm
COc1cc(N(CC(=O)[O-])CC(=O)[O-])c2nc(COc3cc(C)ccc3N(CC(=O)[O-])CC(=O)[O-])ccc2c1,emission maximum,in O,500 nm
CC(C)[Si](C#Cc1c2nsnc2c(C#C[Si](C(C)C)(C(C)C)C(C)C)c2nc3c(ccc4cc5ccccc5cc43)nc12)(C(C)C)C(C)C,emission maximum,in CCCCCC,605 nm
COC(=O)/C=C/c1sc(-c2ccc(N(C)C)s2)c(-c2ccsc2)c1N,emission maximum,in CC#N,557 nm
Cn1c(=O)cc(C(=O)c2ccccc2)c2sc(-c3ccc(N(c4ccccc4)c4ccccc4)cc3)cc21,emission maximum,in CC#N,504 nm
same,emission maximum,in ClCCl,635 nm
CC1(C)c2ccccc2N(c2ccc(B3c4ccccc4Oc4ccccc43)cc2)c2ccccc21,emission maximum,in Cc1ccccc1,472 nm
COc1ccc2c(c1)cc(C)c1c3ccccc3[nH]c21,emission maximum,in ClCCl,363 nm
Cc1ccc(N2C(c3ccccc3[NH-])=[NH+]C(c3ccccc3)C2c2ccccc2)cc1 (stereo unspecified),emission maximum,in Cc1ccccc1,572 nm
COc1cc2c3c4c(c5ccc(C(C)(C)C)cc5c5c(OC)cc(OC)c(c2c(OC)c1OC)c45)=[N+]1C3=Nc2c3c4cc(OC)c(OC)c(OC)c4c4c(OC)cc(OC)c5c6cc(C(C)(C)C)ccc6c(c3c54)n2[B-]1(F)F,emission maximum,in Cc1ccccc1,907 nm
O=C1c2ccccc2C2=Nc3ccc4ccccc4[n+]3[B-](F)(F)N12,emission maximum,in ClCCl,444 nm
c1cc2c3cc1c1ccc4c(c1)c1cc(ccc1[C@]15OCCO[C@]41OCCO5)c1ccc4c(c1)c1cc(ccc1[C@]15OCCO[C@]41OCCO5)c1ccc(c3c1)[C@]13OCCO[C@]21OCCO3,emission maximum,in Cc1ccccc1,343 nm
O=P1(c2ccccc2)C(c2ccc(N(c3ccccc3)c3ccccc3)cc2)=Cc2cc3ccccc3cc21 (stereo unspecified),emission maximum,in C1CCOC1,511 nm
same,emission maximum,in CC#N,561 nm
same,emission maximum,in CN(C)C=O,551 nm
same,emission maximum,in Cc1ccccc1,478 nm
same,emission maximum,in ClC(Cl)Cl,516 nm
same,emission maximum,in ClCCl,533 nm
Fc1ccc(N(c2ccc(F)cc2)c2ccc3c4cccc5c(N(c6ccc(F)cc6)c6ccc(F)cc6)ccc(c6cccc2c63)c54)cc1,emission maximum,in C1CCCCC1,529 nm
same,emission maximum,in C1CCOC1,544 nm
same,emission maximum,in CC#N,548 nm
same,emission maximum,in Cc1ccccc1,540 nm
same,emission maximum,in ClCCl,546 nm
COc1ccc(/C=C/c2nc(/C=C/c3ccc(N(c4ccccc4)c4ccccc4)cc3)cc(/C=C/c3ccc(N(c4ccccc4)c4ccccc4)cc3)n2)cc1,emission maximum,in C1CCOC1,515 nm
same,emission maximum,in CC#N,583 nm
same,emission maximum,in CC(C)=O,555 nm
same,emission maximum,in CCCCCCC,461 nm
same,emission maximum,in CS(C)=O,584 nm
same,emission maximum,in Cc1ccccc1,480 nm
same,emission maximum,in ClCCl,543 nm
